Source: patent US7157083B2, “Compositions and methods for treating retroviral infections” (priority 1998, dated 2007)

Experiments:
Rojo virus = assay: Study 3 hyaluronidase sensitization assay: RT activity after Rojo challenge of naive PBMCs; assay type: cell-based, HIV-1
Experimental: (§1) Percent virus control (% VC) in the following tables is the mean RT activity (cpm) as a percentage of a virus control. Percent cell control (% CC) is the mean XTT absorbance as a percentage of a cell control.
(§2) Reverse transcriptase (RT) activity was measured in cell-free supernatants. Tritiated thymidine triphosphate (NEN) (TTP) was resuspended in distilled H2O at […]. Poly rA and oligo dT were prepared as a stock solution which was kept at −20° C. The RT reaction buffer was prepared fresh on a daily basis and consists of 125 μL 1.0 M EGTA, 125 μL d H2O, 110 μL 10% SDS, 50 μL 1.0 M Tris (pH 7.4), 50 μL 1.0 M DTT, and 40μ1.0 M MgCl2. These three solutions were mixed together in a ratio of 2 parts TTP, 1 part poly rA:oligo dT, and 1 part reaction buffer. Ten microliters of this reaction mixture was placed in a round bottom microtiter plate and 15 μL of virus containing supernatant was added and mixed. The plate was incubated at 37° C. in a water bath with a solid support to prevent submersion of the plate and incubated for 60 minutes. Following reaction, the reaction volume was spotted onto pieces of DE81 paper, washed 5 times for 5 minutes each in a 5% sodium phosphate buffer, 2 times for 1 minute each in distilled water, 2 times for 1 minute each in 70% ethanol, and then dried. Opti-Fluor O was added to each sample and incorporated radioactivity was quantitated utilizing a Wallace 1450 Microbetaplus liquid scintillation counter.
Assay Summary. […] The the monolayers were 3× washed with PBS, with Human PBMCs (5×10e4/well) returned to the monolayer. The PBMCs were either mixed donor, PHA blast, with IL2 supplemented medium, or were single donor non-PHA blast/no IL2 supplemented. After 72 hours, the PBMCs were removed, reset in a 96 well plate and then challenged with a standard MOI of the Rojo virus. The plates were incubated for an additional 6 days and then assayed for RT activity. The studies were produced in triplicate.

IIIB (HIV IIIB virus) = assay: Study 4 sensitization, Turpin and standard macrophages: RT activity after IIIB challenge; assay type: cell-based
Experimental: as §1, §2
The macrophage plates were then washed with HBSS multiple times. Fresh mixed pha blast PBMCs (5×10e4/well) were placed on the macrophage cells, allowed to incubate for 72 hours and then harvested and reset in a fresh 96 well plate. The PBMCs were then challenged overnight with the respective virus (IIIB or Rojo) at a standard MOI for that virus. The PBMCs were 5× in plate spin washed with DPBS, incubated 24 hours, at which time 5×10e4 fresh pha blast PBMCs/well were added. The culture was incubated an additional 6 days and then assayed for RT activity.
Where viability corrections were conducted, they were performed by dividing the RT CPM value by the toxicity absorbance in order to compensate for well to well variations noted in the cell titer toxicity noted.

## Hyaluronidase
Rojo virus; 0.20 μg/mL, 5 μL GP120 IIIB, With PHA/IL2
  RT activity % VC: 78.6%
Rojo virus; 0.20 μg/mL, 5 μL GP120 IIIB, Without PHA/IL2
  RT activity % VC: 155.9%
Rojo virus; 0.20 μg/mL, 5 μL Rojo, With PHA/IL2
  RT activity % VC: 88.8%
Rojo virus; 0.20 μg/mL, 5 μL Rojo, Without PHA/IL2
  RT activity % VC: 77.8%
Rojo virus; 0.20 μg/mL, 10 μL Rojo, Without PHA/IL2
  RT activity % VC: 112.8%
Rojo virus; 0.20 μg/mL, 50 μL Rojo, With PHA/IL2
  RT activity % VC: 79.1%
Rojo virus; 0.20 μg/mL, 50 μL Rojo, Without PHA/IL2
  RT activity % VC: 125.8%
Rojo virus; 0.39 μg/mL, 5 μL GP120 IIIB, With PHA/IL2
  RT activity % VC: 116.1%
Rojo virus; 0.39 μg/mL, 5 μL GP120 IIIB, Without PHA/IL2
  RT activity % VC: 195.6%
Rojo virus; 0.39 μg/mL, 5 μL Rojo, With PHA/IL2
  RT activity % VC: 79.7%
Rojo virus; 0.39 μg/mL, 5 μL Rojo, Without PHA/IL2
  RT activity % VC: 102.7%
Rojo virus; 0.39 μg/mL, 10 μL Rojo, With PHA/IL2
  RT activity % VC: 123.2%
Rojo virus; 0.39 μg/mL, 10 μL Rojo, Without PHA/IL2
  RT activity % VC: 115.9%
Rojo virus; 0.39 μg/mL, 50 μL Rojo, With PHA/IL2
  RT activity % VC: 87.6%
Rojo virus; 0.39 μg/mL, 50 μL Rojo, Without PHA/IL2
  RT activity % VC: 149.4%
Rojo virus; 0.78 μg/mL, 5 μL GP120 IIIB, With PHA/IL2
  RT activity % VC: 101.9%
Rojo virus; 0.78 μg/mL, 5 μL GP120 IIIB, Without PHA/IL2
  RT activity % VC: 134.4%
Rojo virus; 0.78 μg/mL, 5 μL Rojo, With PHA/IL2
  RT activity % VC: 68.2%
Rojo virus; 0.78 μg/mL, 5 μL Rojo, Without PHA/IL2
  RT activity % VC: 7.0%
Rojo virus; 0.78 μg/mL, 10 μL Rojo, With PHA/IL2
  RT activity % VC: 110.5%
Rojo virus; 0.78 μg/mL, 10 μL Rojo, Without PHA/IL2
  RT activity % VC: 97.6%
Rojo virus; 0.78 μg/mL, 50 μL Rojo, With PHA/IL2
  RT activity % VC: 102.6%
Rojo virus; 1.56 μg/mL, 5 μL GP120 IIIB, With PHA/IL2
  RT activity % VC: 98.0%
Rojo virus; 1.56 μg/mL, 5 μL GP120 IIIB, Without PHA/IL2
  RT activity % VC: 158.5%
Rojo virus; 1.56 μg/mL, 5 μL Rojo, With PHA/IL2
  RT activity % VC: 59.0%
Rojo virus; 1.56 μg/mL, 5 μL Rojo, Without PHA/IL2
  RT activity % VC: 6.4%
Rojo virus; 1.56 μg/mL, 10 μL Rojo, With PHA/IL2
  RT activity % VC: 125.9%
Rojo virus; 1.56 μg/mL, 10 μL Rojo, Without PHA/IL2
  RT activity % VC: 115.6%
Rojo virus; 1.56 μg/mL, 50 μL Rojo, With PHA/IL2
  RT activity % VC: 115.7%
Rojo virus; 1.56 μg/mL, 50 μL Rojo, Without PHA/IL2
  RT activity % VC: 146.0%
Rojo virus; 3.1 μg/mL, 5 μL GP120 IIIB, With PHA/IL2
  RT activity % VC: 85.5%
Rojo virus; 3.1 μg/mL, 5 μL GP120 IIIB, Without PHA/IL2
  RT activity % VC: 145.7%
Rojo virus; 3.1 μg/mL, 5 μL Rojo, With PHA/IL2
  RT activity % VC: 56.0%
Rojo virus; 3.1 μg/mL, 5 μL Rojo, Without PHA/IL2
  RT activity % VC: 9.7%
Rojo virus; 3.1 μg/mL, 10 μL Rojo, With PHA/IL2
  RT activity % VC: 117.8%
Rojo virus; 3.1 μg/mL, 10 μL Rojo, Without PHA/IL2
  RT activity % VC: 97.3%
Rojo virus; 3.1 μg/mL, 50 μL Rojo, With PHA/IL2
  RT activity % VC: 97.3%
Rojo virus; 3.1 μg/mL, 50 μL Rojo, Without PHA/IL2
  RT activity % VC: 86.8%
Rojo virus; 6.3 μg/mL, 5 μL GP120 IIIB, With PHA/IL2
  RT activity % VC: 105.3%
Rojo virus; 6.3 μg/mL, 5 μL GP120 IIIB, Without PHA/IL2
  RT activity % VC: 71.7%
Rojo virus; 6.3 μg/mL, 5 μL Rojo, Without PHA/IL2
  RT activity % VC: 15.7%
Rojo virus; 6.3 μg/mL, 10 μL Rojo, Without PHA/IL2
  RT activity % VC: 67.1%
Rojo virus; 6.3 μg/mL, 50 μL Rojo, With PHA/IL2
  RT activity % VC: 61.3%
Rojo virus; 6.3 μg/mL, 50 μL Rojo, Without PHA/IL2
  RT activity % VC: 21.3%
Rojo virus; 25 μg/mL, 5 μL GP120 IIIB, With PHA/IL2
  RT activity % VC: 85.5%
Rojo virus; 25 μg/mL, 5 μL GP120 IIIB, Without PHA/IL2
  RT activity % VC: 8.8%
Rojo virus; 25 μg/mL, 5 μL Rojo, Without PHA/IL2
  RT activity % VC: 8.8%
Rojo virus; 25 μg/mL, 10 μL Rojo, With PHA/IL2
  RT activity % VC: 97.3%
Rojo virus; 25 μg/mL, 10 μL Rojo, Without PHA/IL2
  RT activity % VC: 2.3%
Rojo virus; 25 μg/mL, 50 μL Rojo, With PHA/IL2
  RT activity % VC: 73.4%
Rojo virus; 25 μg/mL, 50 μL Rojo, Without PHA/IL2
  RT activity % VC: 8.4%
IIIB (HIV IIIB virus); 0.097656 μg/mL, GP120IIIB Sensitized, Standard
  RT activity % VC: 176.4%
IIIB (HIV IIIB virus); 0.097656 μg/mL, GP120IIIB Sensitized, Turpin
  RT activity % VC: 89.0%
IIIB (HIV IIIB virus); 0.097656 μg/mL, IIIB Sensitized, Standard
  RT activity % VC: 145.2%
IIIB (HIV IIIB virus); 0.097656 μg/mL, IIIB Sensitized, Turpin
  RT activity % VC: 98.7%
IIIB (HIV IIIB virus); 0.195313 μg/mL, GP120IIIB Sensitized, Standard
  RT activity % VC: 102.8%
